In brackets after ≈: the same amount, converted by molar mass. Residues, ends and D or L forms follow the SMILES beside them.
Experiments:
E. faecium ATCC51559 = format: cell-based, Enterococcus faecium; conditions: ATCC51559
Procedure: (§1) Bacterial strains used in this study included Enterococcus faecium ATCC51559, Staphylococcus aureus USA300 LAC, Klebsiella pneumoniae ATCC 13883, Acinetobacter baumannii B2367-12, Pseudomonas aeruginosa PAO1, Enterobacter cloacae B2366-12 and Escherichia coli ATCC 25922, wherein the first six constituting the ESKAPE pathogens. Tryptic soy broth (TSB) for bacterial growth was obtained from BD Bioscience (Sparks, Md.).
(§2) The antibacterial activity of peptides was evaluated using a standard broth microdilution protocol as described (Wang et al. (2012) Antimicrob. Agents Chemother., 56:845-856). In brief, 5 μl of each bacterium (stored at −80° C.) were inoculated into TSB medium (2 ml) and grown overnight. A second inoculation was made in the morning by delivering 10 μl of the overnight culture to a fresh TSB medium. After 2-3 hours growth at 37° C., 225 rpm, logarithmic phase bacterial cultures (OD600≈0.5) were diluted and partitioned into a 96-well polystyrene microplate with ˜10^5 colony forming units (CFU) per well (90 μl aliquots). After treatment with 10 μl of peptide solutions at various concentrations, microplates were incubated at 37° C. overnight and read on a ChroMate® 4300 Microplate Reader at 630 nm (GMI, Ramsey, Minn.). The medium was used as a blank where no bacteria should grow.

S. aureus USA300 LAC = format: cell-based, Staphylococcus aureus; conditions: USA300
Procedure: as §1, §2

A. baumannii B2367-12 = format: cell-based, Acinetobacter baumannii; conditions: B2367-12
Procedure: as §1, §2

P. aeruginosa PAO1 = format: cell-based, Pseudomonas aeruginosa; conditions: PAO1
Procedure: as §1, §2

E. cloacae B2366-12 = format: cell-based, Enterobacter cloacae; conditions: B2366-12
Procedure: as §1, §2

E. coli ATCC 25922 [1] = format: cell-based, Escherichia coli; conditions: ATCC 25922
Procedure: as §1, §2

ESKAPE pathogens = format: cell-based
Procedure: as §1, §2

[2] = Cytotoxicity of soluble peptide (MTS); format: cell-based; conditions: human, HaCaT cells; free peptide; read-out: 50% lethal concentration (LC50) to HaCaT cells
Procedure: In vitro spontaneously transformed keratinocytes from histologically normal human skin (HaCaT cells) from Fisher (Hampton, N.H.) (Cat # T0020001) were maintained in DMEM high glucose medium with 4 mM L-glutamine (HyClone, South Logan, Utah) and 100 U ml^−1 penicillin, 100 μg ml^−1 streptomycin (pen/strep, p/s) (Life Technologies, Carlsbad, Calif.), and 10% (v v^−1) inactivated fetal bovine serum (FBS, NyClone), DMEM with 10% FBS, p/s. Cells were grown in 5% CO2 at 37° C. and were detached from culturing dish at 100% confluency by treating with 0.025% trypsin-EDTA (NyClone), seeded (100,000 cells well^−1) in 24-well plates (Corning Life Science, Salt Lake City, Utah) and grown overnight in 200 μl of DMEM medium to reach a 70% confluency. The peptide-coated surfaces (1.0×1.0 cm) were placed in a 24-well plate DMEM with or without 10% FBS, p/s for 1 hour. Samples were taken out and 60 μl of CellTiter96® MTS were added. Plates were further incubated for another 2 hours at 37° C. Subsequently, 100 μl of the solution were placed in a clean 96-well plate to measure the absorbance at 492 nm on a ChroMate® reader (GMI). For comparison, the toxicity of the soluble peptides was also measured and they were treated in the same way as described above. The culture medium and a 0.2% SDS solution were used as negative and positive controls, respectively.

[3] = tested on: human red blood cells (hRBC); format: cell-based; conditions: red cells of human
Procedure: Blood was obtained from the Blood Bank of the University of Nebraska Medical Center (UNMC) and washed three times (800 g, 10 minutes) with normal saline to remove plasma. A final solution containing 2% human red blood cells (hRBC) was then prepared in normal saline and used for the assay. 90 μl of this solution were added to 10 μl of serially diluted peptide solutions and incubated at 37° C. for 1 hour. It was then centrifuged at 15,700 g for 5 minutes on an Eppendorf® bench-top centrifuge 5415D. Aliquots of the supernatant (˜80 μl) were carefully transferred to a fresh 96-well microplate (Costar, Corning, N.Y.) and absorbance was read at 545 nm to detect the amount of hemoglobin released. Percent lysis was calculated based on the extent of hemoglobin released, where 100% release is assumed in the presence of 1% TRITON™ X-100 and 0% release is assumed in saline.

S. aureus USA300 [4] = format: cell-based, Staphylococcus aureus
Procedure: (§3) The antimicrobial activity of peptides was evaluated using a standard broth microdilution protocol. In brief, exponential phase bacteria at 10^6 CFU were incubated with serially diluted peptides overnight for ˜20 hours at 37° C. The plates were read on a ChroMate® 4300 Microplate Reader at 630 nm (GMI, Ramsey, Minn.).

E. coli ATCC 25922 [5] = format: cell-based, Escherichia coli; conditions: ATCC 25922, 20 h
Procedure: as §3

human red blood cells = experiment: Hemolytic ability (Example 3); format: cell-based; conditions: concentration that causes 50% hemolysis
Procedure: Hemolytic analysis of selected peptides was performed using an established protocol. Briefly, human blood cells (UNMC Blood Bank) were washed three times with phosphate buffer saline (PBS) and diluted to a 2% solution. After peptide treatment, incubation at 37° C. for one hour, and centrifugation at 13,000 rpm, aliquots of the supernatant were transferred to a fresh 96-well microplate. To assess peptide cytotoxicity, the amount of hemoglobin released was measured at 545 nm. The percent lysis was calculated by assuming 100% release when human blood cells were treated with 1% TRITON™ X-100, and 0% release when incubated with PBS buffer.

S. aureus USA300 [6] = experiment: Growth inhibition in TSB media (FIG. 15A); format: cell-based, Staphylococcus aureus; conditions: 3.1 μM (printed 3.1 LM), 37° C.
Procedure: FIGS. 15A and 15B show the growth inhibition (FIG. 15A) and propidium iodide-based membrane permeation (FIG. 15B) of S. aureus USA300 in TSB media by 3.1 μM of TetraF2W-RR and its single arginine variants (Table 8) at 37° C. with shaking at 100 rpm.
Fluorescence spectroscopy was also used to follow bacterial killing. In brief, μL of serially diluted 10× peptide concentrations were done in 96-well coming COSTAR microtiter plates. Propidium iodide at a fixed concentration of 20 μM per well was added to each well which was finally incubated with 88 μL of S. aureus USA300 (with a final OD600 0.1) with continuous shaking at 100 rpm with meander corner well shaking, 37° C. in a FLUOstar® Omega (BMG LABTECH Inc., NC) microplate reader. The plates were read every 5 minutes for a total duration of 2 hours with excitation and emission wavelengths at 584 nm and 620 nm, respectively.

S. aureus USA300 [7] = experiment: Live cell penetration experiment (FITC, confocal); format: cell-based, Staphylococcus aureus; conditions: peptide and FITC 12.5 μM
Procedure: The entrance of a fluorescent dye into live bacterial cells was followed by confocal microscopy (Mishra et al. (2015) RSC Advances 5:59758-59769). In short, S. aureus USA300 was grown to the exponential phase from the overnight culture. The cells were then washed twice with fresh 1×PBS (pH 7.2) and the final cell density was adjusted to 1×10^8 CFU/mL. 1500 μL of the culture was added to the chambers of cuvettes (borosilicate cover glass systems) with equimolar concentrations of TetraF2W-RK and fluorescein isothiocyanate FITC (12.5 μM). The samples were examined with a confocal laser scanning microscope (Zeiss 710) with a series of live time pictures taken at every 5 seconds for 5 minutes and the data were processed using Zen 2010 software.

S. aureus USA300 [8] = format: cell-based, Staphylococcus aureus; conditions: 12.5 μM
Procedure: Two types of experiments were conducted to evaluate the anti-biofilm activity of these peptides against S. aureus USA300 grown under a static condition for 24 hours to form established biofilms in presence of tryptic soy broth (TSB). The experiment was set up using a flat bottom, 96-well, polystyrene microtiter plates (Corning, COSTAR). In short, S. aureus USA300 (10^5 CFU/mL) in fresh TSB media was made from an exponentially growing culture. 200 μL of this bacterial culture was added to each well of the microtiter plates. The plates are then incubated at 37° C. for 24 hours to allow biofilm formation. Media was then carefully removed followed by washing with sterile 1×PBS to remove any unattached bacteria. Solution containing μL of 10× peptide solution and 180 μL of fresh TSB were added. The plates were again incubated at 37° C. for another 24 hours. To measure the extent of biofilm disruption by the peptides as a function of biofilm reduction, crystal violet staining was performed. Media was pipetted out and the wells were carefully washed with 200 μL of PBS to remove the loosely attached cells. Subsequently, 200 μL of 99% methanol was added for fixation and the plates were allowed to sit for 15 minutes. The plates were finally aspirated and dried. Lastly, staining was done with 200 μL of 1% crystal violet in water for 5 minutes. Excess stain was gently rinsed off with tap water, and plates were air-dried. Further, stains were solubilized in 200 μL of 33% glacial acetic acid followed by colorimetric measurement at 600 nm on a Chromate® microtiter plate reader. The amounts of biofilm growth with and without compound treatments were calculated.
In addition, live cell contents of the peptide acted biofilms was estimated by XTT [2,3-bis(2-methyloxy-4-nitro-5-sulfophenyl)-2H-tertazolium-5-carboxanilide]assay by following the manufacturer's instructions with modifications. A 10% XTT solution in TSB media was added to each well and the plates were again incubated for 2 hours at 37° C. Absorbance at 450 nm (only media with XTT containing wells served as the blank) was obtained using Chromate® microtiter plate reader. Percentage of biofilm reduction for the peptide was plotted assuming 100% biofilm growth is achieved on the bacterial wells without peptide treatment.

S. aureus USA300 [9] = experiment: Confocal microscopy of preformed biofilms (Example 3); format: cell-based, Staphylococcus aureus
Procedure: S. aureus USA300 (10^5 CFU/mL) was made from exponentially growing bacteria. 1800 μL was added to the chamber of cuvettes (Borosilicate cover glass systems), and was incubated for 37° C., 24 hours for biofilm formation. Media was then pipetted out and chambers were washed with 1×PBS to remove non-adhered cells. To disrupt the preformed biofilms, 200 μL of 10× stocks of the peptide was added followed by 1800 μL of TSB. Control cuvettes contained water instead of peptide. The cuvettes were again incubated for another 24 hours at 37° C. Subsequently, the supernatant was pipetted out and the chambers were washed with 1×PBS. For evaluation under confocal microscope the biofilms were stained with 10 μL of LIVE/DEAD® kit (Invitrogen Molecular Probes) according to the manufacturer's instructions. The samples were examined with a confocal laser scanning microscope (Zeiss 710) and the data processed using Zen 2010 software.

Compound | MIC EF (E. faecium ATCC51559) | MIC SA (S. aureus USA300 LAC) | MIC AB (A. baumannii B2367-12) | MIC PA (P. aeruginosa PAO1) | MIC ECl (E. cloacae B2366-12) | MIC EC (E. coli ATCC 25922 [1]) | MIC range against almost all / most of the tested strains (ESKAPE pathogens) | CC50 at 1 hour [2] | 50% hemolytic concentration (HL50) [3] | cell selectivity index (ratio of HL50 and MIC) (S. aureus USA300 [4]; HL50 human red blood cells / MIC S. aureus USA300) | S. aureus (MIC) (S. aureus USA300 [4]; USA300, 20 h) | E. coli (MIC) (E. coli ATCC 25922 [5]) | HL50 (human red blood cells) | growth inhibition of S. aureus USA300 (S. aureus USA300 [6]) | time to entry of FITC into bacteria after peptide treatment (S. aureus USA300 [7]) | killing in preformed biofilms (XTT) (S. aureus USA300 [8]) | killing in 24 hour preformed biofilms (LIVE/DEAD confocal) (S. aureus USA300 [9])
CC[C@H](C)[C@H](NC(=O)[C@H](CCCNC(=N)N)NC(=O)[C@H](CCC(N)=O)NC(=O)[C@@H](NC(=O)[C@@H](NC(=O)[C@H](CCCNC(=N)N)NC(=O)[C@H](CCCCN)NC(=O)[C@@H](N)Cc1ccccc1)[C@@H](C)CC)C(C)C)C(=O)N[C@@H](CCCCN)C(=O)N[C@@H](CC(=O)O)C(=O)N[C@@H](Cc1ccccc1)C(=O)N[C@@H](CC(C)C)C(=O)N[C@@H](CCCNC(=N)N)C(=O)N[C@@H](CC(N)=O)C(=O)N[C@@H](CC(C)C)C(=O)N[C@H](C(=O)N[C@@H](CS)C(=O)O)C(C)C [FK-16Cys] (H-FKRIVQRIKDFLRNLVC-OH; N-terminus and C-terminus assumed) | 12.5 ± 0 µM (≈ 26.9 µg/mL) | 18 ± 7.2 µM (≈ 38.7 µg/mL) | 12.5 ± 0 µM (≈ 26.9 µg/mL) | >50 µM | 50 ± 0 µM (≈ 107 µg/mL) | 37.5 ± 17.6 µM (≈ 80.6 µg/mL) | 12.5 to 50 µM | > 100 µM | ~35 µM |  |  |  |  |  |  |  | 
CC(C)C[C@H](NC(=O)[C@H](Cc1c[nH]c2ccccc12)NC(=O)[C@H](Cc1c[nH]c2ccccc12)NC(=O)[C@@H](N)Cc1c[nH]c2ccccc12)C(=O)N[C@@H](CCCNC(=N)N)C(=O)N[C@@H](CCCNC(=N)N)C(=O)N[C@@H](CCCNC(=N)N)C(=O)N[C@@H](Cc1c[nH]c2ccccc12)C(N)=O [Peptide I7R, WWWLRRRW] (H-WWWLRRRW-NH2; N-terminus assumed) |  |  |  |  |  |  |  |  |  | 48 | 3.1 µM | 6.2 µM | 150 µM | almost equally effective to the WT | 28 s | 80% | the majority of cells are red
